What all share (type): cell-based
For assay [1], the system named is S. marcescens 35. The assay can be described thus: Antimicrobial activity, minimal inhibitory concentration (agar streak) against S. marcescens 35. The settings on record: Serratia marcescens, 10^8 viable cells per ml, heart infusion agar, 37° C. for 20 hours. Here is the method:
(§1) Now in order to show the utility of the object compounds (I), test data on anti-microbial activity of a representative compound of the present invention are shown below.
(§2) One loopful of an overnight culture of each test strain in Trypticase-soy broth (10^8 viable cells per ml.) was streaked on heart infusion agar (HI-agar) containing graded concentrations of antibiotics, and the minimal inhibitory concentration (MIC) was expressed in terms of μg/ml after incubation at 37° C. for 20 hours.

The subject of assay [2] is Ps. aeruginosa 2. In words: Antimicrobial activity, minimal inhibitory concentration (agar streak) against Ps. aeruginosa 2. The settings on record: Pseudomonas aeruginosa, 10^8 viable cells per ml, heart infusion agar, 37° C. for 20 hours. Here is the method: as §1, §2
Assay [3] deals with B. subtilis ATCC 6633. The assay can be described thus: Antimicrobial activity, minimal inhibitory concentration (agar streak) against B. subtilis ATCC 6633. The settings on record: Bacillus subtilis, ATCC6633, 10^8 viable cells per ml, heart infusion agar, 37° C. for 20 hours. The procedure:
as §1, §2

Values after ≈ are worked out from the molar mass of the structure shown.

Consider `CCO/N=C(\C(=O)NC1C(=O)N2C(C(=O)[O-])=C(C[n+]3ccc(C(N)=O)cc3)CSC12)c1nsc(N)n1` (stereo not drawn) [(3)], for which the MIC (as a rule, the lowest concentration found to suppress growth) in assay [1] is 3.13 µg/mL (≈ 5.88 µM); in assay [2], 25 µg/mL (≈ 46.9 µM); in assay [3], 0.78 µg/mL (≈ 1.46 µM).
Consider `CCCO/N=C(\C(=O)NC1C(=O)N2C(C(=O)[O-])=C(C[n+]3ccccc3)CSC12)c1nsc(N)n1` (stereo not drawn) [(2)], for which the MIC was 3.13 µg/mL (≈ 6.22 µM) in assay [1], 12.5 µg/mL (≈ 24.8 µM) in assay [2] and 0.39 µg/mL (≈ 0.774 µM) in assay [3].
With `CCO/N=C(\C(=O)NC1C(=O)N2C(C(=O)[O-])=C(C[n+]3ccccc3)CSC12)c1nsc(N)n1` (stereo not drawn) [(1)], the results for the MIC in assay [1], in assay [2] and in assay [3] were 1.56 µg/mL (≈ 3.19 µM), 3.13 µg/mL (≈ 6.39 µM) and 0.78 µg/mL (≈ 1.59 µM), respectively.

For the origin of these results see patent US4332800A, “Cephem compounds” (Fujisawa Pharmaceutical Co., Ltd., priority 1979, dated 1982).
